This note sets out measurements from patent US4439426A, “Semisynthetic macrolidic antibiotics, intermediate compounds for their preparation and related pharmaceutical compositions containing them” (priority 1981, dated 1984).

Converted amounts (≈) assume the structure as drawn.

Assay in all cases: Bacteriostatic power in solid medium (MIC)
Common to all, as to format: cell-based

The subject of test [1] is Streptococcus pneumoniae ATCC 6303 LRP 53. Conditions: Streptococcus pneumoniae, ATCC6303, read-out: Minimum inhibiting concentration. The procedure, abridged: (§1)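 Minimum concentration preventing growth is given for every organism; the collection included anaerobes as well as aerobes, with both Gram types represented.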
Test [2] has as its system Pseudomonas aeruginosa LRP 9. Conditions: Pseudomonas aeruginosa, LRP9, read-out: Minimum inhibiting concentration. In short, it runs like this: as §1
The test system of test [3] is Haemophilus influenzae ATCC 19418 LRP 213. The conditions noted are these: Haemophilus influenzae, ATCC19418, read-out: Minimum inhibiting concentration. In short, it runs like this: as §1
Test [4] concerns Micrococcus luteus ATCC 9341 LRP 6. Conditions: Micrococcus luteus, ATCC9341, read-out: Minimum inhibiting concentration. In short, it runs like this:
as §1

The subject of test [5] is Staphylococcus aureus ATCC 14154 LRP 78. Conditions: Staphylococcus aureus, ATCC14154, read-out: Minimum inhibiting concentration. The procedure, abridged:
as §1

The subject of the next test is Shigella sonnei LRP 5. Conditions: LRP5, read-out: Minimum inhibiting concentration. In short, it runs like this:
as §1

As to `CC[C@H]1OC(=O)[C@H](C)[C@@H](O[C@H]2C[C@@](C)(OC)[C@@H](O)[C@H](C)O2)[C@H](C)[C@@H](O[C@@H]2O[C@H](C)C[C@H](N(C)C)[C@H]2O)[C@](C)(O)C[C@](C)(F)C(=O)[C@H](C)[C@@H](O)[C@]1(C)O` [P-80206, (8S)-8-fluoroerythromycin A], the MIC was found to be 0.024 µg/mL (≈ 0.0319 µM) in test [1]; 25 µg/mL (≈ 33.2 µM) in test [2]; 3.12 µg/mL (≈ 4.15 µM) in test [3]; 0.006 µg/mL (≈ 0.00798 µM) in test [4]; 25 µg/mL (≈ 33.2 µM) in test [5]; 25 µg/mL (≈ 33.2 µM) in the test with Shigella sonnei LRP 5.
